Data taken from BindingDB's records for doi:10.1016/j.bmc.2009.08.006 (Universitat de Barcelona, 2009).

Each molecule was assayed against 5-hydroxytryptamine receptor 6 (Homo sapiens, UniProt P50406) (assay: 5-HT6 Binding Assay). Details: pH 7.4; 37 °C.
Experimental: The incubation was initiated by addition of membrane to reaction buffer contained radioligand in the presence of test compound. And the incubation time was 60 min at 37 deg C. After incubation, the membranes were collected onto polyethylenimine-pretreated glass fiber filters. Radioactivity was determined by scintillation counting. Nonspecific binding was determined with 100 uM serotonin. Competition binding data were analyzed by using the LIGAND program, and assays were performed in triplicate determinations for each point.

Chain of 5-hydroxytryptamine receptor 6 (P50406 whole entry): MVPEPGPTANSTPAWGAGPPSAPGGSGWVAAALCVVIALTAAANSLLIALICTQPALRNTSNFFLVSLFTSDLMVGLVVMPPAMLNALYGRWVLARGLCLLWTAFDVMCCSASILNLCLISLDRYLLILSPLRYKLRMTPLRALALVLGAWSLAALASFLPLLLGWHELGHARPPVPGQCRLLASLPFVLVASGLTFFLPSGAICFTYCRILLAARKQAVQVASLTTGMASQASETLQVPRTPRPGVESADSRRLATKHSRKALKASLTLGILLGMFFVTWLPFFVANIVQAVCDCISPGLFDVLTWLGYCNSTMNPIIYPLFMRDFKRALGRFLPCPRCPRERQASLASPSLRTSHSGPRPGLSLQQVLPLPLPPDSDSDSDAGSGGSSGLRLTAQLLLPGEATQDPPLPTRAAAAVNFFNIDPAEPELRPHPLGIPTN

First: CN1CCC(c2cn(S(=O)(=O)c3ccccc3Br)c3ccccc23)C1 (centres undefined)
Second: CN(C)Cc1cn(S(=O)(=O)c2ccccc2)c2ccccc12
The EC50 of the first is 17-fold lower: 53.3 nM for the first, 880 nM for the second. The first is the more potent here.

Compared with `Cc1cn(S(=O)(=O)c2ccc(N)cc2)c2ccccc12` [4-(3-methyl-1H-indole-1-sulfonyl)aniline, 8], `CN1CCC[C@H]1Cc1c[nH]c2ccc(NS(=O)(=O)c3ccc(C(F)(F)F)cc3)cc12` [pyrrolidinylindole, (S)-5b] is 15-fold lower in EC50: 320 nM for the first, 21.6 nM for the second.

`CN(C)CCc1c[nH]c2ccc(NS(=O)(=O)c3ccc4c(Cl)cccc4c3)cc12` and `O=S(=O)(Nc1ccc2[nH]cc(C[C@H]3CCCN3)c2c1)c1ccccc1I` [(R)-5a] are within 1.5-fold of each other in EC50: 0.29 nM for the first, 0.4 nM for the second.

Compared with `O=S(=O)(Nc1ccc2[nH]cc(C[C@H]3CCCN3)c2c1)c1ccccc1I` [(R)-5a], `CC1=Cc2cc(NS(=O)(=O)c3c(Cl)nc4sccn34)ccc2C1` [indenylsulfonamide, 47+48] is 43-fold higher in Ki: 1 nM for the first, 43 nM for the second.

In the case of `CC1=Cc2cc(NS(=O)(=O)c3c(Cl)nc4sccn34)ccc2C1` [indenylsulfonamide, 47+48], the IC50 is reported as 3000 nM.
